Assay results published in US20230279379A1, “METHODS AND MICROFLUIDIC DEVICE FOR PRODUCING EXTRACELLULAR VESICLES” (THE BOARD OF TRUSTEES OF THE UNIVERSITY OF ILLINOIS, priority 2022, published 2023).

Columns and labels:
[1] = test system: F-actin in MSCs; test: dSTORM super-resolution imaging and DBSCAN clustering of F-actin; format: cell-based; settings: CK869 treatment for 2 hours
Description: Sample Preparation for Imaging of F-Actin in Cells on Hydrogels. To prepare samples for F-actin imaging, glass bottom dishes (No 0., 35 mm; MatTek) were silanized, and a thin layer of PEG-DA hydrogel with varied elasticity was formed as described above. After cell seeding on hydrogels and culturing cells in the presence of DMSO or CK869, cells were permeabilized with 0.0015% saponin (Sigma) in a cytoskeleton buffer (10 mM MES, pH 6.0, 150 mM NaCl, 5 mM EGTA, 5 mM glucose, and 5 mM MgCl2) for 4 minutes at room temperature. The samples were then washed with the cytoskeleton buffer 3 times and fixed with 4% paraformaldehyde in the cytoskeleton buffer for 20 minutes at room temperature. […]
Super-Resolution Imaging of F-actin. […] 50,000 images were recorded for each cell in each condition; after rejecting overtly dense/bleached images approx. 30,000 images were analyzed in each cell/condition for localization detection in post-processing using ThunderSTORM (ImageJ), with the following settings in brief: wavelet filtering (B-spline order 3, scale 2); integrated Gaussian fitting (radius: 3 pixels, initial sigma: 1.6 pixels); local maximum with 8-neighborhood; camera pixel size 160 nm. […]
Nanoscale Clustering Analysis of F-actin. […] The percentage of F-actin localizations that belong to each cluster group per cell was then quantified and used for statistical analysis.

[2] = test system: Primary human MSCs; test: EV secretion per cell from MSCs on hydrogel substrates, nanoparticle tracking analysis; format: cell-based; settings: 5 μM CK869, ~4 hour adhesion, EV collection after 24 hours

`COc1ccc(N2C(=O)CSC2c2cccc(Br)c2)c(OC)c1` (stereo not drawn) [CK869] was tested, and the “distribution of F-actin clusters” value [1] was “did not alter the distribution of different F-actin clusters on both substrates”, the “EV secretion on the soft hydrogel” value ([2]; soft hydrogel) was “to a lesser but significant extent” and the “EV secretion on the stiff hydrogel” value ([2]; stiff hydrogel) was “increased EV secretion on the stiff hydrogel”.
